The values that follow come from patent US20230167073A1 (Teijin Pharma Limited, priority 2020, published 2023).

This test deals with T1, Human TRPC6 (Homo sapiens, UniProt Q9Y210).
T1 construct: expressed in transfected cells
T1 sequence (Q9Y210 1-931): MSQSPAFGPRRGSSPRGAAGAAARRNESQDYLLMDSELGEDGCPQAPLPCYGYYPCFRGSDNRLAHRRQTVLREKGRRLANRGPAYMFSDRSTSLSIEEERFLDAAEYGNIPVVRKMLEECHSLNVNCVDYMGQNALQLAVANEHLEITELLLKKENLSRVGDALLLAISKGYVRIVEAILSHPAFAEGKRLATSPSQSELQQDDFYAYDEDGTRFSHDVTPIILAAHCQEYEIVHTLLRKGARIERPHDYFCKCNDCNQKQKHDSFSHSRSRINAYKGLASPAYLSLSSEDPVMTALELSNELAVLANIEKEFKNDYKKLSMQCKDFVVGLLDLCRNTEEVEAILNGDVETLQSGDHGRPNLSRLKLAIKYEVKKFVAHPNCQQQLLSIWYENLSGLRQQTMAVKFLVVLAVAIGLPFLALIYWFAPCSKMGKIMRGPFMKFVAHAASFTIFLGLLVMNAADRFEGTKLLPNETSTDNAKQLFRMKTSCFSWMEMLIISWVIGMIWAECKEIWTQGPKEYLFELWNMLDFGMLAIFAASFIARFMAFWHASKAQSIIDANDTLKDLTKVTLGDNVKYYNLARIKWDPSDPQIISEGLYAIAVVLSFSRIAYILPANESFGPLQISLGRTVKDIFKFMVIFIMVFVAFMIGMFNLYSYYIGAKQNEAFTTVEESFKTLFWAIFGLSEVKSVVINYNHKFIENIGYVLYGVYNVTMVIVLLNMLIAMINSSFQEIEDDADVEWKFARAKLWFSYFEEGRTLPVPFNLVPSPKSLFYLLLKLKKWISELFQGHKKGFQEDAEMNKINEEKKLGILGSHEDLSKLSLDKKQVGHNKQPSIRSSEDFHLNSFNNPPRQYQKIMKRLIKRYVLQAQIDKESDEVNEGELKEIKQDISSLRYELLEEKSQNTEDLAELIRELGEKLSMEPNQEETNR
Put plainly: Evaluation of TRPC6 channel inhibitory activity (1), FLIPR Calcium 5 Assay Kit, OAG stimulation (Compound Nos. 1-1293). It counts as cell-based. To be noted: Human TRPC6 stably-expressing cells, OAG 30 μM, FLIPR Calcium 5 Assay Kit; read-out: Inhibitory activity (pIC50 class) (converted). The method, boiled down: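 The FLIPR signal is maximum fluorescence after 30 μM OAG minus minimum before compound, measured in a human TRPC6 stable line loaded with Calcium 5 dye. Compounds were preincubated 20 min. pIC50 came from four-parameter logistic fitting of inhibition rates and is given as symbol ranges.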
Turning to `Cn1nc(C2CC2)cc1Oc1cc(C#N)ccc1-c1cc(C(=O)N2CCC(N)CC2)ccn1` [compound 553, 4-[4-(4-aminopiperidine-1-carbonyl)pyridin-2-yl]-3-(5-cyclopropyl-2-methylpyrazol-3-yl)oxybenzonitrile], the IC50 is greater than 1000 nM. As for `Cn1nc(C2CCCC2)cc1Oc1cc(C#N)ccc1-c1ccc([C@H](O)CN)cn1` [compound 392, 4-[5-[(1S)-2-amino-1-hydroxyethyl]pyridin-2-yl]-3-(5-cyclopentyl-2-methylpyrazol-3-yl)oxybenzonitrile], the IC50 was less than 10 nM. For the compound `Cc1cc(Oc2cc(C#N)ccc2-c2ncc(CN)cn2)cc(-c2ccccn2)n1` [compound 572, 4-[5-(aminomethyl)pyrimidin-2-yl]-3-(2-methyl-6-pyridin-2-ylpyridin-4-yl)oxybenzonitrile], the IC50 is 10 to 1000 nM. The result for `CN(C)c1cc(Oc2cc(F)ccc2-c2ccc(CN)cn2)n(C)n1` [compound 998, 5-[2-[5-(aminomethyl)pyridin-2-yl]-5-fluorophenoxy]-N,N,1-trimethylpyrazole-3-amine] reads 10 to 1000 nM.

In the case of `Cc1cc(Oc2cc(C#N)ccc2-c2ncc([C@H](F)CN)cn2)cc(N2CCOCC2)n1` [compound 872, 4-[5-[(1S)-2-amino-1-fluoroethyl]pyrimidin-2-yl]-3-(2-methyl-6-morpholin-4-ylpyridin-4-yl)oxybenzonitrile], the IC50 was less than 10 nM. On to `Cc1nc(N2CCOCC2)cc(N(C)c2cc(C#N)ccc2-c2ccc3c(c2)COC32CN(C)C2)n1` [Compound 5, 3-[methyl-(2-methyl-6-morpholin-4-ylpyrimidin-4-yl)amino]-4-(1′-methylspiro[3H-2-benzofuran-1,3′-azetidin]-5-yl)benzonitrile], for which the IC50 is greater than 1000 nM.

For the compound `Cc1nc(-c2ccccc2F)cn1Cc1cc(C#N)ccc1-c1ccc(CCN)cn1` [compound 1152, 4-[5-(2-aminoethyl)pyridin-2-yl]-3-[[4-(2-fluorophenyl)-2-methylimidazol-1-yl]methyl]benzonitrile], the IC50 was less than 10 nM. For `Cn1nc(-c2cnccn2)cc1Oc1cc(C#N)ccc1-c1ncc(CN)cn1` [Compound No. 931, 4-[5-(Aminomethyl)pyrimidin-2-yl]-3-(2-methyl-5-pyrazin-2-ylpyrazol-3-yl)oxybenzonitrile], the IC50 is 10 to 1000 nM. For `Cc1cc(Oc2cc(C#N)ccc2-c2ccc(C[C@H](N)C(=O)O)cn2)cc(N2CCOCC2)n1` [compound 611, (2S)-2-amino-3-[6-[4-cyano-2-(2-methyl-6-morpholin-4-ylpyridin-4-yl)oxyphenyl]pyridin-3-yl]propanoic acid] the value was greater than 1000 nM; for `Cn1nc(N2CCCCC2)cc1Oc1cc(C#N)ccc1-c1ncc(CN)cn1` [compound 624, 4-[5-(aminomethyl)pyrimidin-2-yl]-3-(2-methyl-5-piperidin-1-ylpyrazol-3-yl)oxybenzonitrile], less than 10 nM; for `CCc1cc(Oc2cc(C#N)ccc2-c2ncc(CCN)cn2)n(C)n1` [Compound 293, 4-[5-(2-aminoethyl)pyrimidin-2-yl]-3-(5-ethyl-2-methylpyrazol-3-yl)oxybenzonitrile], less than 10 nM. The result for `Cc1cc(Oc2cc(C#N)ccc2-c2ncc([C@H](O)CN)cn2)cc(N2CCOCC2)n1` [compound 430, 4-[5-[(1S)-2-amino-1-hydroxyethyl]pyrimidin-2-yl]-3-(2-methyl-6-morpholin-4-ylpyridin-4-yl)oxybenzonitrile] reads less than 10 nM; that for `Cc1cc(Oc2cc(C#N)ccc2-n2ccc(C(O)CN)n2)cc(-c2ccccc2)n1` (stereo not drawn) [Compound 203, 4-[3-(2-amino-1-hydroxyethyl)pyrazol-1-yl]-3-(2-methyl-6-phenylpyridin-4-yl)oxybenzonitrile], 10 to 1000 nM; that for `NCCc1cnc(-c2ccc(F)cc2C(=O)c2cnn(CC3CC3)c2)nc1` [compound 1101, [2-[5-(2-aminoethyl)pyrimidin-2-yl]-5-fluorophenyl]-[1-(cyclopropylmethyl)pyrazol-4-yl]methanone], 10 to 1000 nM. Take `Cc1cc(Oc2cc(C#N)ccc2-c2ccc([C@H](O)CN)cn2)cc(N2C[C@@H](C)O[C@@H](C)C2)n1` [compound 505, 4-[5-[(1S)-2-amino-1-hydroxyethyl]pyridin-2-yl]-3-[2-[(2S,6R)-2,6-dimethylmorpholin-4-yl]-6-methylpyridin-4-yl]oxybenzonitrile]: the IC50 was less than 10 nM. For `Cn1nc(C2CC2)cc1Oc1cc(C#N)ccc1-c1ccc(OCCN)cn1` [compound 348, 4-[5-(2-aminoethoxy)pyridin-2-yl]-3-(5-cyclopropyl-2-methylpyrazol-3-yl)oxybenzonitrile] the value was less than 10 nM; for `Cn1cc(-c2cc(Oc3cc(C#N)ccc3-c3ncc(CN)cn3)n(C)n2)cn1` [compound 947, 4-[5-(aminomethyl)pyrimidin-2-yl]-3-[2-methyl-5-(1-methylpyrazol-4-yl)pyrazol-3-yl]oxybenzonitrile], greater than 1000 nM; for `N#Cc1ccc(-c2ccc(CCN)cn2)c(Oc2cnnc(N3CCCCC3)c2)c1` [Compound 90, 4-[5-(2-aminoethyl)pyridin-2-yl]-3-(6-piperidin-1-ylpyridazin-4-yl)oxybenzonitrile], 10 to 1000 nM.

With `N#Cc1ccc(-c2ncc(CCN)cn2)c(C(=O)c2cnn(CC3CC3)c2)c1` [compound 1046, 4-[5-(2-aminoethyl)pyrimidin-2-yl]-3-[1-(cyclopropylmethyl)pyrazole-4-carbonyl]benzonitrile], the IC50 is less than 10 nM. In the case of `Cn1nc(-c2ccc(F)cc2)cc1Oc1cc(C#N)ccc1-c1ccc(CCN)cc1` [Compound 165, 4-[4-(2-aminoethyl)phenyl]-3-[5-(4-fluorophenyl)-2-methylpyrazol-3-yl]oxybenzonitrile], the IC50 is 10 to 1000 nM. For `N#Cc1ccc(-c2ccc(CCN)cc2)c(C(=O)c2nnc(N3CCOCC3)o2)c1` [compound 1086, 4-[4-(2-aminoethyl)phenyl]-3-(5-morpholin-4-yl-1,3,4-oxadiazole-2-carbonyl)benzonitrile] the value was less than 10 nM; for `Cn1nc(C2CC2)cc1Oc1cc(C#N)ccc1-c1ccc(N)cn1` [compound 416, 4-(5-aminopyridin-2-yl)-3-(5-cyclopropyl-2-methylpyrazol-3-yl)oxybenzonitrile], greater than 1000 nM; for `CC(C)N(C)c1cc(Oc2cc(C#N)ccc2-c2ncc(CCN)cn2)n(C)n1` [compound 775, 4-[5-(2-aminoethyl)pyrimidin-2-yl]-3-[2-methyl-5-[methyl(propan-2-yl)amino]pyrazol-3-yl]oxybenzonitrile], less than 10 nM.

`NCCc1ccc(-c2ccc(F)cc2Oc2cnnc(N3CCOCC3)c2)nc1` [compound 1006, 2-[6-[4-fluoro-2-(6-morpholin-4-ylpyridazin-4-yl)oxyphenyl]pyridin-3-yl]ethanamine]: the IC50 is 10 to 1000 nM. For `Cc1cc(Oc2cc(C#N)ccc2-c2ccc(CN)cn2)cc(NC2CC2)n1` [compound 645, 4-[5-(aminomethyl)pyridin-2-yl]-3-[2-(cyclopropylamino)-6-methylpyridin-4-yl]oxybenzonitrile] the value was 10 to 1000 nM; for `Cc1nc(Oc2cc(C#N)ccc2-c2ccc(C(CN)c3ccc(F)cc3)cc2)cc(N2CCOCC2)n1` (stereo not drawn) [Compound 60, 4-[4-[2-amino-1-(4-fluorophenyl)ethyl]phenyl]-3-(2-methyl-6-morpholin-4-ylpyrimidin-4-yl)oxybenzonitrile], 10 to 1000 nM. For the compound `CC(C)c1cc(Oc2cc(F)ccc2-c2ccc(CN)cn2)n(C)n1` [compound 1011, [6-[4-fluoro-2-(2-methyl-5-propan-2-ylpyrazol-3-yl)oxyphenyl]pyridin-3-yl]methanamine], the IC50 was less than 10 nM. For `Cc1nn(CC(C)C)cc1Cc1cc(C#N)ccc1-c1ncc(CCN)cn1` [compound 1199, 4-[5-(2-aminoethyl)pyrimidin-2-yl]-3-[[3-methyl-1-(2-methylpropyl)pyrazol-4-yl]methyl]benzonitrile], the IC50 is less than 10 nM. As for `Cc1c(Oc2cc(C#N)ccc2-c2ncc(CCN)cn2)cnn1CC(C)(C)C` [compound 938, 4-[5-(2-aminoethyl)pyrimidin-2-yl]-3-[1-(2,2-dimethylpropyl)-5-methylpyrazol-4-yl]oxybenzonitrile], the IC50 was 10 to 1000 nM. Regarding `CCN(CC(F)F)c1cc(Oc2cc(C#N)ccc2-c2ncc(CN)cn2)n(C)n1` [compound 874, 4-[5-(aminomethyl)pyrimidin-2-yl]-3-[5-[2,2-difluoroethyl(ethyl)amino]-2-methylpyrazol-3-yl]oxybenzonitrile], the IC50 is less than 10 nM.
